The text below walks through data of patent US20050238731A1, “Composition and method for treating the effects of diseases and maladies of the upper digestive tract” (priority 2003, published 2005).

Assay [1] in a line: open label observation for control of heart burn in volunteers. The class given is in vivo, human. The conditions noted are these: open label observations in people. The text has this:
The preferred ingredients of the dietary supplement formulations for preventing or treating or managing upper digestive disorders referred to in this patent including but not limited to acid related disease, H. pylori infection and ulcerogenic medications, drugs or substances such as alcohol, tobacco smoke or any other damaging agent that is ingested or absorbed in to the body that may cause upper digestive disturbance are listed in one formulation that has undergone open label observation for the control of the symptom heart burn in six volunteers with recurrent heart burn and this formulation was made in several batches of a chewable tablet with the following ingredients that have been modified from time to time. These chewable tablets contain the following ingredients with amounts listed in two chewable tablets. The range of the ingredients has been made in different dosage amounts of each ingredient and tested in at least two volunteers for each of six batches of varying dosage of ingredients. Each batch consistently relieved symptoms of mild moderate or severe heart burn in open labeled observations in volunteers with symptoms of gastresophageal reflux disease.

A further assay concerns stomach acid secretion. To be noted: rat model, cited from earlier work.
The next assay deals with gastric acid secretion. The conditions noted are these: cited from earlier work.

With `O=c1oc2c(O)c(O)cc3c(=O)oc4c(O)c(O)cc1c4c23` [ellagic acid], the dyspepsia and heartburn result in assay [1] is “has helped people with dyspepsia and heartburn”. The stomach acid secretion entry with stomach acid secretion (at a certain dosage level) was “stomach acid secretion was blocked”. Also, in the assay with stomach acid secretion, the stomach ulcers entry is listed as “ulcers could be prevented in part”.

Turning to salvianolic acid, in the assay on gastric acid secretion (animals exposed to cold water immersion or restraint), the “development of stomach ulcers” value is “prevents the development of stomach ulcers”. Further, the gastric acid secretion entry in the assay with gastric acid secretion (animals) is listed as “reduce gastric acid secretion”. In addition, in the assay on gastric acid secretion (pylorus-ligated animals), the “formation of gastric ulcers” value is recorded as “reduce the formation of gastric ulcers”.
